According to PubChem BioAssay AID1159562 (GlaxoSmithKline (GSK), 2015):
Active and inactive are the calls of the source. How the calls were made is not given here.

The compounds below were run on Trypanosoma brucei growth inhibition, luminescence (assay: Trypanosoma brucei growth inhibition, luminescence (AID 1159562);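 further: parasites grew with compound for 24 h before the luminescence read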).

| IC50 | SMILES |
| --- | --- |
| > 40 µM (inactive) | CC1=C(C(=O)Nc2ccc(Cl)cc2)C(c2ccncc2)n2ncc(C(=O)Nc3ccccc3)c2N1 (stereo not given) |
| > 40 µM (inactive) | Clc1ccc(OCCN2CCCCC2c2cccnc2)c(Cl)c1 (stereo not given) |
| 0.05 µM | CC(C)C[C@H](NC(=O)c1ccc(-c2ccccc2)o1)C(=O)NC1(C#N)CC1 |
| 3.2 µM | N#Cc1cc([N+](=O)[O-])ccc1NC1CCCCCC1 |
| > 40 µM (inactive) | Cc1ccc2sc(NC(=O)Cn3cnc([N+](=O)[O-])n3)nc2c1 |
| 0.63 µM | COc1ccc(-c2csc(NC(=O)c3ccc([N+](=O)[O-])s3)n2)cc1OC |
| > 40 µM (inactive) | Cc1cc2ncn(-c3ccc([N+](=O)[O-])cc3C#N)c2cc1C |
| 20 µM | COc1cccc(C(=O)[C@H]2C[C@@H]2CN(Cc2ccccn2)Cc2ccccn2)c1 |
| > 40 µM (inactive) | Cc1nc(C(=O)Nc2ccc3c(c2)OCO3)nn1-c1ccc(F)cc1 |
| 0.32 µM | O=C(Cc1ccccc1)Nc1[nH]nc2sc(C(=O)NC3CCCC3)cc12 |
| > 40 µM (inactive) | Clc1ccc(C(CC2CCCCO2)Cn2cncn2)c(Cl)c1 (stereo not given) |
| > 40 µM (inactive) | O=S(=O)(NCC(c1cccnc1)N1CCN(c2ccccc2F)CC1)c1ccc(F)cc1 (stereo not given) |
| 3.2 µM | O=C(Nc1nc(-c2ccccn2)cs1)C1CCc2ccccc2C1 (stereo not given) |
| > 40 µM (inactive) | CCCCn1nnnc1CSc1nc(C)cc(C)c1C#N |
| 0.4 µM | Cc1cc(Oc2cc(Cl)c(Cl)cc2Cl)n2ncnc2n1 |
| 32 µM | N#Cc1nc(C=Cc2ccccc2)oc1NCc1cccnc1 |
| 5 µM | CS(=O)(=O)c1cccc(-c2cnc(N)c3c(-c4ccc(CO)cc4)csc23)c1 |
| 0.25 µM | COc1ccc(Nc2nc(NC3CCC(O)CC3)ncc2Br)c(C(N)=O)c1 (stereo not given) |
| 2 µM | CC(=O)Nc1ccc(-c2cnc(N)c(-c3nc4ccc(F)cc4[nH]3)c2)cc1 |
| 32 µM | COc1ccc(S(=O)(=O)Nc2ccccc2OC)cc1NC(=O)CCCc1c[nH]c2ccccc12 |
| 0.79 µM | Cc1nc(-c2nc(NCc3ccc(Cl)cc3)c3cccnc3c2O)n[nH]1 |
| > 40 µM (inactive) | Cc1cccc(NS(=O)(=O)c2cnc3sc(C)cn3c2=O)c1 |
| > 40 µM (inactive) | N#Cc1ccccc1S(=O)(=O)N1CCN(C(=O)CNC(=O)c2ccc3c(c2)OCO3)CC1 |
| 10 µM | Fc1ccc(OC2CC(NCc3cccc4cn[nH]c34)C2)cc1C(F)(F)F (stereo not given) |
| > 40 µM (inactive) | CC(C(=O)Nc1ccc(Br)cc1)N1CCN(c2ccc([N+](=O)[O-])cc2)CC1 (stereo not given) |
| 0.63 µM | COc1ccc2ncc(Cl)c(CCN3CC[C@H](NCc4cc5c(cn4)OCS5)[C@@H](O)C3)c2n1 |

| IC50 | SMILES |
| --- | --- |
| 20 µM | CC(C)COC(=O)Nc1ccc(N2CCC(CNS(=O)(=O)c3ccccc3)CC2)c(F)c1 |
| 1.3 µM | N#Cc1cc(-c2ccnc(Nc3cccc(CN4CCOCC4)c3)n2)ccc1NCCN |
| > 40 µM (inactive) | Cc1cc(N(C)C)nc(Nc2ccccc2C)n1 |
| 40 µM | COc1ccc2nc(N(Cc3cccnc3)C(=O)C3CCC3)sc2c1 |
| 0.63 µM | COc1ccc(S(=O)(=O)Nc2ccc(CN3CCN(C(=O)c4cccc(C#N)c4)CC3)cc2)cc1 |
| > 40 µM (inactive) | CNc1cc(C)nc(C2CN(C(=O)c3n[nH]c4ccccc34)CCO2)c1 (stereo not given) |
| 16 µM | O=C(c1cc2cc(Cl)ccc2[nH]1)N1CCCCC1c1cccnc1 (stereo not given) |
| 0.2 µM | CC(C)CC(=O)Nc1cc(C2CC2)nn1-c1nc2c(c(=O)[nH]1)CCCC2 |
| > 40 µM (inactive) | CN(C)S(=O)(=O)c1cccc(CSc2nnc(-c3ccc4c(c3)OCO4)o2)c1 |
| 0.4 µM | Cc1ccnc(NS(=O)(=O)c2ccc(NC(=O)c3ccc([N+](=O)[O-])s3)cc2)n1 |
| 0.5 µM | Cc1cccc(Nc2nc(-c3ccccn3)cs2)n1 |
| 20 µM | Clc1cc(Br)ccc1OCCCCn1ccnc1 |
| 0.063 µM | N#Cc1cccc(Cc2cc(Nc3cc(C4CC4)[nH]n3)nc(N3CC[C@H]3C(N)=O)n2)c1 |
| 0.63 µM | CCOC(=O)c1noc(N)c1-c1ccccc1 |
| 4 µM | OC1CCC(Nc2nccc(-c3sc(C4CCOCC4)nc3-c3ccc(F)c(F)c3)n2)CC1 (stereo not given) |
| 0.2 µM | CC(=O)NCCNc1cc(-c2ccnc(Nc3cccc(Cl)c3)n2)ccn1 |
| 0.13 µM | O=C1NCc2cccc(Nc3nc(NC4CCC(O)CC4)ncc3Br)c21 (stereo not given) |
| 10 µM | O=c1[nH]c(C=Cc2cccc(OCCOc3ccccc3)c2)nc(O)c1[N+](=O)[O-] |
| > 40 µM (inactive) | O=C(C1CCCCC1)N1CCN(c2nnc(-c3ccccc3)c3ccccc23)CC1 |
| > 40 µM (inactive) | CNc1cncc(C2CCCN2C(=O)Cc2ccc3ccccc3c2)n1 (stereo not given) |
| 0.4 µM | CC1CCCN(S(=O)(=O)c2ccc(C(=O)Nc3nc(-c4ccccn4)cs3)cc2)C1 (stereo not given) |
| 0.25 µM | Cc1cc(Nc2ccc(C#N)c(Cl)c2C)n[nH]1 |
| > 40 µM (inactive) | CCc1cccc(-n2nc(OCC(=O)NC3CCCC3)c3cccnc32)c1 |
| > 40 µM (inactive) | Cc1nn(C)c(Cl)c1CN(Cc1cccnc1)Cc1ccsc1 |
| 20 µM | Cc1cc(-c2cccc3ccccc23)nc2nc(N)nc(N)c12 |
| 6.3 µM | CC(C)(C)Nc1nc(-c2ccccn2)nc2ccccc12 |

| IC50 | SMILES |
| --- | --- |
| 0.63 µM | O=C1NCCn2ccc(Nc3nc(NC4CCC(O)CC4)ncc3Cl)c21 (stereo not given) |
| 10 µM | Cc1nc2c(-c3ncn[nH]3)cc(NC(=O)Cc3ccccc3)cn2c1C |
| 6.3 µM | COc1ccc2ncc(=O)n(CCN3CCC(NCc4ccc(-c5cccs5)cc4)CC3)c2n1 |
| 25 µM | COc1ccc(C(=O)Nc2cc(C(F)(F)F)ccc2N2CCOCC2)c(OC)c1 |
| > 40 µM (inactive) | O=C(c1ccc(OCCCc2cnc[nH]2)cc1)C1CC1 |
| 1 µM | CCc1ccc2nc(NC(=O)c3cc(N4CCOCC4)ccn3)sc2c1 |
| 0.5 µM | COc1ccc2nccc([C@H](O)CN3CC[C@H](NC(=O)c4ccc(Br)cc4)[C@@H](O)C3)c2n1 |
| > 40 µM (inactive) | Cc1cc(N2CCc3ccccc3C2)nc(Nc2ccc(S(=O)(=O)N3CCOCC3)cc2)n1 |
| 0.79 µM | C[C@@H](Oc1cc(-n2cnc3cc(N)ccc32)sc1C(N)=O)c1ccccc1Cl |
| 0.79 µM | O=C(Nc1nc2cc(Cl)ccc2o1)c1cccc(Cl)c1 |
| 20 µM | O=C(Nc1nc2ccccc2[nH]1)c1c(O)c2cccc3c2n(c1=O)CC3 |
| 4 µM | CCc1cc(C(=O)Nc2nccn2-c2ccccc2)cs1 |
| 40 µM | Cn1cc(CN2CCN(c3ccc4c(c3)CCN(C(=O)[C@H]3C[C@@H]3c3ccccc3)CC4)CC2)cn1 |
| > 40 µM (inactive) | CS(=O)(=O)c1cccc(CNC(=O)c2cncc(N3CCN(c4ccc(F)cc4)CC3)c2)c1 |
| 0.79 µM | CCc1cccc(CC)c1-n1c(SCC(=O)NC(=O)NCc2ccco2)nnc1-c1cccnc1 |
| > 40 µM (inactive) | O=S(=O)(NCC(c1cccnc1)N1CCN(c2ccc(F)cc2)CC1)c1cccs1 (stereo not given) |
| > 40 µM (inactive) | CC1CN(Cc2ccc(C#N)cc2)CCN1c1ccc(NC(=O)c2ccccc2F)cc1 (stereo not given) |
| > 40 µM (inactive) | c1cc(-c2ncc(-c3ccn[nH]3)s2)ccn1 |
| 0.1 µM | Cc1cc(Br)sc1CNCCCNc1cc(=O)c2ccccc2[nH]1 |
| 25 µM | COc1ccc(C2C3CCCCC3(O)CCN2CC(=O)Nc2ccc(Cl)cc2Cl)cc1 (stereo not given) |
| > 40 µM (inactive) | O=C(NCCc1cccnc1)c1ccc(-c2ccccc2F)o1 |
| 32 µM | COc1cc(C(C)C)c(S(C)(=O)=O)cc1C(=O)N1CCN(c2ccccc2Cl)CC1 |
| 5 µM | Cc1ccc(-c2csc(NC(=O)C=Cc3ccc(S(=O)(=O)N4CCOCC4)cc3)n2)o1 |
| 0.4 µM | CN(C)S(=O)(=O)c1ccc(Cl)c(C(=O)Nc2nc(-c3ccccn3)cs2)c1 |
| > 40 µM (inactive) | COc1cc2c(cc1OC)[C@H]1[C@@H](C)c3ccc(OC)c(OC)c3CN1CC2 |
| 25 µM | CCN(CC)c1ccc(S(=O)(=O)N(CC)CC)c2nonc12 |

| IC50 | SMILES |
| --- | --- |
| 1.6 µM | CC(C)(C)c1csc(NC(=O)c2ccc([N+](=O)[O-])s2)n1 |
| 3.2 µM | Cc1ccc(Nc2nc(-c3ccccn3)cc(N3CCCC(O)C3)n2)cc1 (stereo not given) |
| 0.32 µM | Cc1ccc(S(=O)(=O)Nc2ccc(CN3CCN(C(=O)c4cccc(C#N)c4)CC3)cc2)cc1 |
| 0.63 µM | COc1cccc(NS(=O)(=O)c2ccc3[nH]cc(C(=O)NCCC(C)C)c(=O)c3c2)c1 |
| 0.79 µM | CC(C)(C)CC(=O)NCc1noc(COc2ccccc2)n1 |
| 0.79 µM | CC(C)(C)C(=O)NCCc1csc(-c2ccc(F)cc2)n1 |
| 0.16 µM | NS(=O)(=O)c1ccc(Nc2nccc(-c3cnn4ncccc34)n2)cc1 |
| > 40 µM (inactive) | COc1ccc(C)cc1-c1csc(NC(=O)C(C)n2ccnc2)n1 (stereo not given) |
| 10 µM | COc1ccc(-c2cnc(NC(=O)c3cc(-c4ccccn4)n[nH]3)n2C)cc1 |
| > 40 µM (inactive) | Clc1ccc(CN2CCN(C3=NCCN3)CC2)cc1Cl |
| 32 µM | COc1ccc(-c2nc3ccncc3c(=O)n2CCOc2ccccc2)cc1 |
| 1 µM | O=[N+]([O-])c1ccc(-c2nnn(-c3ccc(Cl)cc3)n2)o1 |
| 25 µM | CN(C)CCOc1ccc(N2CCN(S(=O)(=O)c3ccc(Cl)cc3)CC2)cc1 |
| > 40 µM (inactive) | CC(=Cc1ccccc1)CN1CCC(=O)N(Cc2cccnc2)CC1 |
| 0.1 µM | COc1cnc2ccc(=O)n(CCN3CCC(NC(=O)c4ccc(Cl)cc4)CC3)c2c1 |
| 1 µM | Cc1ccc(C)c(CN2C(=O)NC3(CCc4ccccc43)C2=O)c1 (stereo not given) |
| 4 µM | Cc1cc(C)n(-c2nc(NC(C)(C)C)nc(N3CCOCC3)n2)n1 |
| 4 µM | CN(C)CCN(C)Cc1ccc(Cl)cc1NS(=O)(=O)c1ccc(Cl)c(Cl)c1 |
| 0.79 µM | O=c1cc(NCCCNCc2c[nH]c3ccc(Br)cc23)[nH]c2ccccc12 |
| 4 µM | Cc1cc(C#N)c([N+](=O)[O-])cc1Br |
| 0.4 µM | COc1ccc2ncc(Cl)c(CCN3CC[C@@H](NCc4cc5c(cn4)OCS5)[C@H](O)C3)c2n1 |
| 0.63 µM | CC(C)CC(=O)NC(c1cccs1)c1ccc2cccnc2c1O (stereo not given) |
| 0.79 µM | Cc1[nH]nc(C(F)(F)F)c1NC(=O)CCn1cc(Cl)c([N+](=O)[O-])n1 |
| 32 µM | CCC1Oc2cc(S(=O)(=O)N(C)CC(=O)N3CCc4ccccc4C3)c(C)cc2NC1=O (stereo not given) |
| > 40 µM (inactive) | CN(Cc1ccc(F)cc1)c1ccc(OCC(=O)N2CCCCC2c2cccnc2)nn1 (stereo not given) |
| 32 µM | CN(C)Cc1ccc(N2CCC(NS(=O)(=O)c3ccc(Cl)cc3)CC2)cc1 |

| SMILES | IC50 |
| --- | --- |
| Cc1nn(-c2nc3ccccc3s2)c2c1C(c1ccc(OCC(N)=O)cc1)SCC(=O)N2 (stereo not given) | 0.032 µM |
